Test results reported in US11178873B2, “Cyclic N-carboxamide compounds useful as herbicides” (FMC CORPORATION, priority 2015, dated 2021).

What was measured:
Type in all cases: in vivo
[1] = test system: foxtail, giant (giant foxtail, Setaria faberii); experiment: Test A preemergence, foxtail, giant; conditions: 0 to 100 scale, 0 no effect, 100 complete control
Method in brief: (§1)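 Preemergence treatment was a directed soil spray; postemergence plants were 2 to 10 cm tall at the one- to two-leaf stage. Compounds were formulated in solvent with surfactant and grown in loam/sand in the greenhouse. Injury was scored visually against untreated controls after ~10 d, on a 0 (no effect) to 100 (complete control) scale.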

[2] = test system: blackgrass (Alopecurus myosuroides); experiment: Test A postemergence, blackgrass; conditions: 0 to 100 scale, 0 no effect, 100 complete control
Method in brief: as §1

[3] = test system: foxtail, giant (giant foxtail, Setaria faberii); experiment: Test A postemergence, foxtail, giant; conditions: 0 to 100 scale, 0 no effect, 100 complete control
Method in brief: as §1

[4] = test system: pigweed (Amaranthus retroflexus); experiment: Test A postemergence, pigweed; conditions: 0 to 100 scale, 0 no effect, 100 complete control
Method in brief: as §1

[5] = test system: barnyardgrass (Echinochloa crus-galli); experiment: Test B flooded paddy test, barnyardgrass; conditions: Flood, 250 g ai/ha; scale 0 to 100 (0 no effect, 100 complete control); 13 to 15 d
Method in brief: (§2)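 Plants at the 2-leaf stage were flooded to 3 cm above soil, and test compounds were applied directly into the paddy water, which was held at that depth throughout. After 13 to 15 d in a greenhouse, injury was rated visually against untreated controls on a 0–100 scale (0 no effect, 100 complete control).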

[6] = test system: ryegrass, Italian (Italian ryegrass, Lolium multiflorum); experiment: Test A preemergence, ryegrass, Italian; conditions: 0 to 100 scale, 0 no effect, 100 complete control
Method in brief: as §1

[7] = test system: ragweed (common ragweed, Ambrosia elatior); experiment: Test A postemergence, ragweed; conditions: 0 to 100 scale, 0 no effect, 100 complete control
Method in brief: as §1

[8] = test system: corn (Zea mays); experiment: Test A postemergence, corn; conditions: 0 to 100 scale, 0 no effect, 100 complete control
Method in brief: as §1

[9] = test system: galium (catchweed bedstraw, Galium aparine); experiment: Test A postemergence, galium; conditions: 0 to 100 scale, 0 no effect, 100 complete control
Method in brief: as §1

[10] = test system: kochia (Kochia scoparia); experiment: Test A postemergence, kochia; conditions: 0 to 100 scale, 0 no effect, 100 complete control
Method in brief: as §1

[11] = test system: rice (Oryza sativa); experiment: Test B flooded paddy test, rice; conditions: Flood, 250 g ai/ha; scale 0 to 100 (0 no effect, 100 complete control); 13 to 15 d
Method in brief: as §2

[12] = test system: wheat (Triticum aestivum); experiment: Test A postemergence, wheat; conditions: 0 to 100 scale, 0 no effect, 100 complete control
Method in brief: as §1

[13] = test system: ryegrass, Italian (Italian ryegrass, Lolium multiflorum); experiment: Test A postemergence, ryegrass, Italian; conditions: 0 to 100 scale, 0 no effect, 100 complete control
Method in brief: as §1

[14] = test system: kochia (Kochia scoparia); experiment: Test A preemergence, kochia; conditions: 0 to 100 scale, 0 no effect, 100 complete control
Method in brief: as §1

[15] = test system: pigweed (Amaranthus retroflexus); experiment: Test A preemergence, pigweed; conditions: 0 to 100 scale, 0 no effect, 100 complete control
Method in brief: as §1

[16] = test system: barnyardgrass (Echinochloa crus-galli); experiment: Test A preemergence, barnyardgrass; conditions: 0 to 100 scale, 0 no effect, 100 complete control
Method in brief: as §1

[17] = test system: ragweed (common ragweed, Ambrosia elatior); experiment: Test A preemergence, ragweed; conditions: 0 to 100 scale, 0 no effect, 100 complete control
Method in brief: as §1

[18] = test system: barnyardgrass (Echinochloa crus-galli); experiment: Test A postemergence, barnyardgrass; conditions: 0 to 100 scale, 0 no effect, 100 complete control
Method in brief: as §1

[19] = test system: ducksalad (Heteranthera limosa); experiment: Test B flooded paddy test, ducksalad; conditions: Flood, 250 g ai/ha; scale 0 to 100 (0 no effect, 100 complete control); 13 to 15 d
Method in brief: as §2

[20] = test system: sedge, umbrella (small-flower umbrella sedge, Cyperus difformis); experiment: Test B flooded paddy test, sedge, umbrella; conditions: Flood, 250 g ai/ha; scale 0 to 100 (0 no effect, 100 complete control); 13 to 15 d
Method in brief: as §2

O=C1CCC(c2ccc(Cl)cc2)N1C(=O)Nc1ccc(F)c(F)c1F (stereo not drawn) [Compound 22]
0: Plant response rating, Foxtail, Giant ([1]; 31 g ai/ha) | Plant response rating, Foxtail, Giant ([1]; 125 g ai/ha) | Plant response rating, Blackgrass ([2]; 31 g ai/ha) | Plant response rating, Blackgrass ([2]; 125 g ai/ha) | Plant response rating, Foxtail, Giant ([3]; 31 g ai/ha) | Plant response rating, Foxtail, Giant ([3]; 125 g ai/ha) | Plant response rating, Pigweed ([4]; 31 g ai/ha) | Plant response rating, Pigweed ([4]; 125 g ai/ha) | Plant response rating, Barnyardgrass [5] | Plant response rating, Ryegrass, Italian ([6]; 31 g ai/ha) | Plant response rating, Ryegrass, Italian ([6]; 125 g ai/ha) | Plant response rating, Ragweed ([7]; 31 g ai/ha) | Plant response rating, Ragweed ([7]; 125 g ai/ha) | Plant response rating, Corn ([8]; 31 g ai/ha) | Plant response rating, Corn ([8]; 125 g ai/ha) | Plant response rating, Galium ([9]; 31 g ai/ha) | Plant response rating, Galium ([9]; 125 g ai/ha) | Plant response rating, Kochia ([10]; 31 g ai/ha) | Plant response rating, Kochia ([10]; 125 g ai/ha) | Plant response rating, Rice [11] | Plant response rating, Wheat ([12]; 31 g ai/ha) | Plant response rating, Wheat ([12]; 125 g ai/ha) | Plant response rating, Ryegrass, Italian ([13]; 31 g ai/ha) | Plant response rating, Ryegrass, Italian ([13]; 125 g ai/ha) | Plant response rating, Kochia ([14]; 31 g ai/ha) | Plant response rating, Kochia ([14]; 125 g ai/ha) | Plant response rating, Pigweed ([15]; 31 g ai/ha) | Plant response rating, Pigweed ([15]; 125 g ai/ha) | Plant response rating, Barnyardgrass ([16]; 31 g ai/ha) | Plant response rating, Barnyardgrass ([16]; 125 g ai/ha) | Plant response rating, Ragweed ([17]; 31 g ai/ha) | Plant response rating, Ragweed ([17]; 125 g ai/ha) | Plant response rating, Barnyardgrass ([18]; 31 g ai/ha) | Plant response rating, Barnyardgrass ([18]; 125 g ai/ha) | Plant response rating, Ducksalad [19] | Plant response rating, Sedge, Umbrella [20]

O=C1CCC(c2ccc(Cl)cc2)N1C(=O)Nc1ccccc1C(F)(F)F (stereo not drawn) [Compound 23]
0: Plant response rating, Foxtail, Giant ([1]; 31 g ai/ha) | Plant response rating, Foxtail, Giant ([1]; 125 g ai/ha) | Plant response rating, Blackgrass ([2]; 31 g ai/ha) | Plant response rating, Blackgrass ([2]; 125 g ai/ha) | Plant response rating, Foxtail, Giant ([3]; 31 g ai/ha) | Plant response rating, Foxtail, Giant ([3]; 125 g ai/ha) | Plant response rating, Pigweed ([4]; 31 g ai/ha) | Plant response rating, Pigweed ([4]; 125 g ai/ha) | Plant response rating, Barnyardgrass [5] | Plant response rating, Ryegrass, Italian ([6]; 31 g ai/ha) | Plant response rating, Ryegrass, Italian ([6]; 125 g ai/ha) | Plant response rating, Ragweed ([7]; 31 g ai/ha) | Plant response rating, Ragweed ([7]; 125 g ai/ha) | Plant response rating, Corn ([8]; 31 g ai/ha) | Plant response rating, Corn ([8]; 125 g ai/ha) | Plant response rating, Galium ([9]; 31 g ai/ha) | Plant response rating, Galium ([9]; 125 g ai/ha) | Plant response rating, Kochia ([10]; 31 g ai/ha) | Plant response rating, Kochia ([10]; 125 g ai/ha) | Plant response rating, Rice [11] | Plant response rating, Wheat ([12]; 31 g ai/ha) | Plant response rating, Wheat ([12]; 125 g ai/ha) | Plant response rating, Ryegrass, Italian ([13]; 31 g ai/ha) | Plant response rating, Ryegrass, Italian ([13]; 125 g ai/ha) | Plant response rating, Kochia ([14]; 31 g ai/ha) | Plant response rating, Kochia ([14]; 125 g ai/ha) | Plant response rating, Pigweed ([15]; 31 g ai/ha) | Plant response rating, Pigweed ([15]; 125 g ai/ha) | Plant response rating, Barnyardgrass ([16]; 31 g ai/ha) | Plant response rating, Barnyardgrass ([16]; 125 g ai/ha) | Plant response rating, Ragweed ([17]; 31 g ai/ha) | Plant response rating, Ragweed ([17]; 125 g ai/ha) | Plant response rating, Barnyardgrass ([18]; 31 g ai/ha) | Plant response rating, Barnyardgrass ([18]; 125 g ai/ha) | Plant response rating, Ducksalad [19] | Plant response rating, Sedge, Umbrella [20]
